Experiments:
GRK5 = molecular target: T1, GRK5 (Homo sapiens, UniProt P34947); assay: Lance Kinase Activity Assay, GRK5; settings: biochemical Lance kinase activity assay; class symbols A-F; read-out: GRK5 LANCE Assay (IC-50)
T1 construct: purchased Thermo Scientific
Summary of the method: (§1)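 IC50s from sigmoidal dose-response over 0.0025-10 μM compound, with phosphorylated ULight substrate detected by Eu anti-phospho antibody FRET after EDTA quench.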

GRK2 = molecular target: T2, GRK2 (Homo sapiens, UniProt P25098); assay: Lance Kinase Activity Assay, GRK2; settings: biochemical Lance kinase activity assay; class symbols A-F; read-out: GRK2 LANCE Assay (IC-50)
T2 construct: purchased Thermo Scientific
T2 sequence (P25098 1-689): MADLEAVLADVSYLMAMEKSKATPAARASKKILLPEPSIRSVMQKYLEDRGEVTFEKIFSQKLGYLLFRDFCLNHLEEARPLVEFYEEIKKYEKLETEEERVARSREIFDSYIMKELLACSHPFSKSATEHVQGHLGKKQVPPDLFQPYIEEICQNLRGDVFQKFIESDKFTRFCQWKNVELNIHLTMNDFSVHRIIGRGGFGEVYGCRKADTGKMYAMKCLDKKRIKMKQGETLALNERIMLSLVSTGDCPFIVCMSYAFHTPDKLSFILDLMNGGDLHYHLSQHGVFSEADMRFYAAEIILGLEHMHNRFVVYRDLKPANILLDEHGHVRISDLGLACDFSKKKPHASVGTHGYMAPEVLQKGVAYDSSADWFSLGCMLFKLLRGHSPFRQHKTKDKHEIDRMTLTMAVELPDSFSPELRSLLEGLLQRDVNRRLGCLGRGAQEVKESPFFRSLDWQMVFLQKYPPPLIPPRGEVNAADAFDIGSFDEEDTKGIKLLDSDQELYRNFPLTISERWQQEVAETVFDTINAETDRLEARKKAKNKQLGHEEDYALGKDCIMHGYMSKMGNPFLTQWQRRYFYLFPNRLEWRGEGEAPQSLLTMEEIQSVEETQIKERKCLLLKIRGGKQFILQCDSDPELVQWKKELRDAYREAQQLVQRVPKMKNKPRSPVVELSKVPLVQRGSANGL
Summary of the method: as §1

T1 sequence (P34947 whole entry): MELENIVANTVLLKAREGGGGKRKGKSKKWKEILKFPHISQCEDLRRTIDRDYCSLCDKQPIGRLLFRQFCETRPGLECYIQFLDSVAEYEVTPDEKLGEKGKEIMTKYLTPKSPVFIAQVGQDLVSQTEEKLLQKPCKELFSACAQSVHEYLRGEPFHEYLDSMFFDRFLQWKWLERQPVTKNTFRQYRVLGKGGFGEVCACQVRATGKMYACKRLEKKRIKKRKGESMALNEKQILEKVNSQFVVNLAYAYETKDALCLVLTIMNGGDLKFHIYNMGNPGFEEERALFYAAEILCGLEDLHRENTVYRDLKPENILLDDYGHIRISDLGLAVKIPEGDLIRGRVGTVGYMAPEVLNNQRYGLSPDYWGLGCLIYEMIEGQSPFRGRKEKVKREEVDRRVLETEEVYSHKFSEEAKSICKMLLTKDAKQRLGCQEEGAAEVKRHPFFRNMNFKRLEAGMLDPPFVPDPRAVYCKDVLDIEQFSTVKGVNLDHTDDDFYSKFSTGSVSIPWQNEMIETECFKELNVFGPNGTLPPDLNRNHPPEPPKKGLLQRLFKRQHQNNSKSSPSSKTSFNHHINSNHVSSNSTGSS

Structure (SMILES) | IC50 (GRK5) [µM] | IC50 (GRK2) [µM]
C[C@@H](NC(=O)/C(C#N)=C/c1c[nH]c2ncc(-c3ccc(N4CCN(C)CC4)cc3)cc12)c1ccc(F)cc1 [Example 180] | 0.05 to 0.1 | 0.1 to 0.5
COc1ccc([C@@H](C)NC(=O)/C=C/c2c[nH]c3ncc(-c4cc(F)cc(F)c4)cc23)cc1OC [Example 115, (R,E)-3-(5-(3,5-difluorophenyl)-1H-pyrrolo[2,3-b]pyridin-3-yl)-N-(1-(3,4-dimethoxyphenyl)ethyl)acrylamide] | 0.1 to 0.5 | > 10
COc1ccc([C@@H](C)NC(=O)/C(C#N)=C/c2c[nH]c3ncc(N4CCN(C)CC4)cc23)cc1OC [Example 85] | ≤ 0.05 | > 10
COc1ccc([C@@H](C)NC(=O)/C=C/c2c[nH]c3ncc(-c4cccc(N(C)C)c4)cc23)cc1OC [Example 195, (R,E)-N-(1-(3,4-dimethoxyphenyl)ethyl)-3-(5-(3-(dimethylamino)phenyl)-1H-pyrrolo[2,3-b]pyridin-3-yl)acrylamide] | ≤ 0.05 | > 10
N#C/C(=C\c1c[nH]c2ncccc12)C(=O)NCc1cccc(N2CCOCC2)c1 [Example 46, (E)-2-cyano-N-(3-morpholinobenzyl)-3-(1H-pyrrolo[2,3-b]pyridin-3-yl)acrylamide] | 1 to 10 | > 10
COc1ccc([C@@H](C)NC(=O)/C=C/c2c[nH]c3nccc(-c4cccc(N(C)C)c4)c23)cc1OC [Example 228, (R,E)-N-(1-(3,4-dimethoxyphenyl)ethyl)-3-(4-(3-(dimethylamino)phenyl)-1H-pyrrolo[2,3-b]pyridin-3-yl)acrylamide] | 0.05 to 0.1 | 1 to 10
COc1ccc([C@@H](C)NC(=O)/C(C#N)=C/c2c[nH]c3nccc(-c4cc(F)cc(F)c4)c23)cc1OC [Example 178] | 0.1 to 0.5 | > 10
C[C@@H](NC(=O)/C(C#N)=C/c1c[nH]c2ncccc12)c1ccc(Cl)cc1 [Example 70, (R,E)-N-(1-(4-chlorophenyl)ethyl)-2-cyano-3-(1H-pyrrolo[2,3-b]pyridin-3-yl)acrylamide] | 0.1 to 0.5 | 0.5 to 1
N#C/C(=C\c1c[nH]c2ncccc12)C(=O)NCc1ccc(C#N)cc1 [Example 26, (E)-2-cyano-N-(4-cyanobenzyl)-3-(1H-pyrrolo[2,3-b]pyridin-3-yl)acrylamide] | 1 to 10 | 1 to 10
C[C@@H](NC(=O)/C(C#N)=C/c1c[nH]c2ncc(-c3cnn(C)c3)cc12)c1ccc(Cl)cc1 [Example 95, (R,E)-N-(1-(4-chlorophenyl)ethyl)-2-cyano-3-(5-(1-methyl-1H-pyrazol-4-yl)-1H-pyrrolo[2,3-b]pyridin-3-yl)acrylamide] | 0.05 to 0.1 | 1 to 10
COc1ccc([C@@H](C)NC(=O)/C=C/c2c[nH]c3ncc(-c4cccc(CN(C)C)c4)cc23)cc1OC [Example 190] | ≤ 0.05 | 1 to 10
COc1ccc([C@@H](C)NC(=O)/C(C#N)=C/c2c[nH]c3ncc(-c4ccc(F)c(S(C)(=O)=O)c4)c(C)c23)cc1OC [Example 245, (R,E)-2-cyano-N-(1-(3,4-dimethoxyphenyl)ethyl)-3-(5-(4-fluoro-3-(methylsulfonyl)phenyl)-4-methyl-1H-pyrrolo[2,3-b]pyridin-3-yl)acrylamide] | 0.5 to 1 | > 10
N#C/C(=C\c1c[nH]c2ncccc12)C(=O)NCc1ccccc1Cl [Example 62, (E)-N-(2-chlorobenzyl)-2-cyano-3-(1H-pyrrolo[2,3-b]pyridin-3-yl)acrylamide] | 0.1 to 0.5 | 1 to 10
COc1ccc([C@@H](C)NC(=O)/C=C/c2c[nH]c3ncc(-c4cnn(CCN5CCOCC5)c4)cc23)cc1OC [Example 210, (R,E)-N-(1-(3,4-dimethoxyphenyl)ethyl)-3-(5-(1-(2-morpholinoethyl)-1H-pyrazol-4-yl)-1H-pyrrolo[2,3-b]pyridin-3-yl)acrylamide] | ≤ 0.05 | 1 to 10

Results, then the molecule that gave them:

IC50 (GRK5) [µM] | IC50 (GRK2) [µM] | Structure (SMILES)
≤ 0.05 | 0.5 to 1 | COc1ccc([C@@H](C)NC(=O)/C=C/c2c[nH]c3ncc(-c4cccc(S(C)(=N)=O)c4)cc23)cc1OC (stereo partly drawn) [Example 251, (E)-N-((R)-1-(3,4-dimethoxyphenyl)ethyl)-3-(5-(3-(S-methylsulfonimidoyl)phenyl)-1H-pyrrolo[2,3-b]pyridin-3-yl)acrylamide]
≤ 0.05 | 1 to 10 | COc1ccc([C@@H](C)NC(=O)/C(C#N)=C/c2c[nH]c3ncc(Nc4ccccc4)cc23)cc1OC [Example 88, (R,E)-2-cyano-N-(1-(3,4-dimethoxyphenyl)ethyl)-3-(5-(phenylamino)-1H-pyrrolo[2,3-b]pyridin-3-yl)acrylamide]
≤ 0.05 | > 10 | COc1ccc([C@@H](C)NC(=O)/C(C#N)=C/c2c[nH]c3ncc(-c4cccc(S(C)(=O)=O)c4)cc23)cc1OC [Example 125]
≤ 0.05 | 0.1 to 0.5 | C[C@@H](NC(=O)/C(C#N)=C/c1c[nH]c2ncc(-c3cccc(N4CCN(C)CC4)c3)cc12)c1ccc(F)cc1 [Example 181, (R,E)-2-cyano-N-(1-(4-fluorophenyl)ethyl)-3-(5-(3-(4-methylpiperazin-1-yl)phenyl)-1H-pyrrolo[2,3-b]pyridin-3-yl)acrylamide]
0.1 to 0.5 | 1 to 10 | C[C@@H](NC(=O)/C(C#N)=C/c1c[nH]c2ncc(-c3ccccc3)cc12)c1ccc(F)cc1 [Example 179]
≤ 0.05 | 1 to 10 | COc1ccc([C@@H](C)NC(=O)/C(C#N)=C/c2c[nH]c3nccc(-c4ccc(N5CCN(C)CC5)cc4)c23)cc1OC [Example 171, (R,E)-2-cyano-N-(1-(3,4-dimethoxyphenyl)ethyl)-3-(4-(4-(4-methylpiperazin-1-yl)phenyl)-1H-pyrrolo[2,3-b]pyridin-3-yl)acrylamide]
0.5 to 1 | > 10 | COc1ccc([C@@H](C)NC(=O)/C(C#N)=C/c2c[nH]c3ncc(-c4cccc5cnn(C)c45)cc23)cc1OC [Example 150]
0.1 to 0.5 | > 10 | COc1ccc([C@@H](C)NC(=O)/C=C/c2c[nH]c3ncc(-c4ccc(F)cc4OC)cc23)cc1OC [Example 201, (R,E)-N-(1-(3,4-dimethoxyphenyl)ethyl)-3-(5-(4-fluoro-2-methoxyphenyl)-1H-pyrrolo[2,3-b]pyridin-3-yl)acrylamide]
0.05 to 0.1 | 1 to 10 | COc1ccc([C@@H](C)NC(=O)/C=C/c2c[nH]c3nccc(-c4ccc(OCCCN(C)C)cc4)c23)cc1OC [Example 241, (R,E)-N-(1-(3,4-dimethoxyphenyl)ethyl)-3-(4-(4-(3-(dimethylamino)propoxy)phenyl)-1H-pyrrolo[2,3-b]pyridin-3-yl)acrylamide]
0.1 to 0.5 | > 10 | COc1ccc([C@@H](C)NC(=O)/C=C/c2c[nH]c3nccc(-c4cccc(CNC(C)=O)c4)c23)cc1OC [Example 243, (R,E)-3-(4-(3-(acetamidomethyl)phenyl)-1H-pyrrolo[2,3-b]pyridin-3-yl)-N-(1-(3,4-dimethoxyphenyl)ethyl)acrylamide]
≤ 0.05 | 1 to 10 | COc1ccc([C@@H](C)NC(=O)/C(C#N)=C/c2c[nH]c3ncc(OCc4nccn4C)cc23)cc1OC [Example 106, (R,E)-2-cyano-N-(1-(3,4-dimethoxyphenyl)ethyl)-3-(5-((1-methyl-1H-imidazol-2-yl)methoxy)-1H-pyrrolo[2,3-b]pyridin-3-yl)acrylamide]
0.5 to 1 | 1 to 10 | N#C/C(=C\c1c[nH]c2ncccc12)C(=O)N[C@@H](c1ccccc1)C(F)(F)F [Example 14, (S,E)-2-cyano-3-(1H-pyrrolo[2,3-b]pyridin-3-yl)-N-(2,2,2-trifluoro-1-phenylethyl)acrylamide]
≤ 0.05 | 1 to 10 | COc1ccc([C@@H](C)NC(=O)/C=C/c2c[nH]c3ncc(-c4ccc(F)c(S(C)(=O)=O)c4)cc23)cc1OC [Example 220, (R,E)-N-(1-(3,4-dimethoxyphenyl)ethyl)-3-(5-(4-fluoro-3-(methylsulfonyl)phenyl)-1H-pyrrolo[2,3-b]pyridin-3-yl)acrylamide]
1 to 10 | > 10 | CN(C)c1cccc(CNC(=O)/C(C#N)=C/c2c[nH]c3ncccc23)c1 [Example 30, (E)-2-cyano-N-(3-(dimethylamino)benzyl)-3-(1H-pyrrolo[2,3-b]pyridin-3-yl)acrylamide]
≤ 0.05 | 0.1 to 0.5 | C[C@@H](NC(=O)/C(C#N)=C/c1c[nH]c2ncc(-c3cnn(C)c3)cc12)c1ccc(F)c(F)c1 [Example 258, (R,E)-2-cyano-N-(1-(3,4-difluorophenyl)ethyl)-3-(5-(1-methyl-1H-pyrazol-4-yl)-1H-pyrrolo[2,3-b]pyridin-3-yl)acrylamide]
0.05 to 0.1 | 0.05 to 0.1 | N#C/C(=C\c1c[nH]c2ncccc12)C(=O)NC(CO)c1ccccc1 (stereo not drawn) [Example 32, (E)-2-cyano-N-(2-hydroxy-1-phenylethyl)-3-(1H-pyrrolo[2,3-b]pyridin-3-yl)acrylamide]

Reference: patent US20240294522A1 (Lead Discovery Center GmbH, priority 2021, published 2024)
